Several values for one entry are separate records, joined by “and”; a condition that tells them apart may be missing. Identical values can stand only once. Like-named read-outs stand apart in the source and are kept apart here.
How the values were obtained:
[1] = target: T1, PSMA (PSMA+ PC3-Pip cells) (Homo sapiens, UniProt Q04609); experiment: 68Ga-PSMA-11 competition radioligand binding assay
T1 construct: host or cells: PC3-Pip (PSMA+ subline of PC-3)
Method: Competition Radioligand Binding Assay: The nanoparticles were utilized in a ^68Ga-PSMA-11 competition radioligand binding assay to obtain the IC50 values, similar to our prior method. […] PC3-Pip cells were seeded in 96-well plates (˜20 k cells/wells) ˜24 h prior testing in RPMI1640 medium containing with 10% FBS and 1% penicillin/streptomycin. The growth medium was discarded, and the cells were washed with PBS two times. […] The treated cells were incubated for 1 h at room temperature. Then, the radioactive medium was discarded, and the cells were washed twice with PBS. The cells in each well were then treated with NaOH (5N, 250 μL) and incubated for 30 min at 37° C. for lysis. The lysate from each well was collected in vials and analyzed in a Hidex gamma counter to quantify the bound activity. IC50 was calculated by nonlinear regression analysis in Graph-Pad Prism software.
Competition Radioligand Binding Assay: Similar to our prior reported protocol, ^68Ga-PSMA-11 was produced in a ^68Ge/^68Ga generator, and used in a competition radioligand binding assay to acquire the IC50 values for the nanocarriers. […] After 1 h incubated at room temperature, the radioactive medium was removed, and the cells were washed with PBS twice. The cells were lyzed with sodium hydroxide and the radioactivity of the lysate in each well was counted in a Hidex gamma counter. IC50 was determined by nonlinear regression analysis in Prism software (Graph-Pad).

[2] = target: PSMA (Homo sapiens, UniProt Q04609); details: previously reported; cited from earlier work
[3] = system: PC3-Pip metastatic tumors; experiment: Ex vivo organ biodistribution of [68Ga]PSMA-11 in PC3-Pip metastatic models after treatment; details: Control mice (no 177Lu nanocarrier), individual mice
[4] = system: prostate specific antigen; details: patients receiving as low as 14 Gy tumor-absorbed dose; cited from earlier work
[5] = system: PSMA+ PC3-Pip subcutaneous tumors; details: prior literature; cited from earlier work
[6] = system: PSMA+ PC3-Pip subcutaneous tumors; experiment: Treatment study in PSMA+ PC3-Pip subcutaneous models; format: in vivo, mice; details: 250 μCi single dose
Method: The tumor measurements were carried out twice a week, and tumor volumes were calculated by formula V=[length×(width)^2]/2.

T1 sequence (Q04609 whole entry): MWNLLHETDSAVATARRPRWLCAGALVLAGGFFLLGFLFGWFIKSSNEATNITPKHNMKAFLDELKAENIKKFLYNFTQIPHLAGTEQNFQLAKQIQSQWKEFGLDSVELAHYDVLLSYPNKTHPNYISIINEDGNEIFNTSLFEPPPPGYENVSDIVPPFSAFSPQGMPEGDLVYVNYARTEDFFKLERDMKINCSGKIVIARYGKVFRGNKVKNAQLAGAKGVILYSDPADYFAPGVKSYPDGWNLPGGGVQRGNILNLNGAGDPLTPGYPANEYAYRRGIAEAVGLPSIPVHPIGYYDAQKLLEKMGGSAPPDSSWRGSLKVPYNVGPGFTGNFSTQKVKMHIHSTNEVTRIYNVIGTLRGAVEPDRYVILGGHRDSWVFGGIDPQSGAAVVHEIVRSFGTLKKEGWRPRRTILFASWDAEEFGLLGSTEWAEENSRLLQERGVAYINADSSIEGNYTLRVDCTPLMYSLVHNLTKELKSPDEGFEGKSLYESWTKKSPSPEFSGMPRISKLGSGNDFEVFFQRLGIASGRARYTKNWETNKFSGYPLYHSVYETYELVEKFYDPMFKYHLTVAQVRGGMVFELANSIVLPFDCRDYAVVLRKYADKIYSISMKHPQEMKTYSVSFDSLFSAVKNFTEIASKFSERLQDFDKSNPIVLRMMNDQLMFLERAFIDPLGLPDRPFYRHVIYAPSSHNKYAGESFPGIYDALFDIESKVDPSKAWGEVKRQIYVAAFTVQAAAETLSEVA
Sequence of PSMA (Q04609 whole entry, species assumed): as the sequence (Q04609 whole entry) above

Compound: [N-]=[N+]=NCCCCCCOC(=O)NCCCC[C@H](NC(=O)N[C@@H](CCC(=O)O)C(=O)O)C(=O)O [Azido-ACUPA]
- IC50 ([1]; Table 2 Experiment 1, unlabeled): 350 nM
- IC50 ([1]; Table 10 Experiment 2, unlabeled): 328 nM

Compound: O=C(O)CC[C@H](NC(=O)N[C@@H](CCCCNC(=O)Nc1ccc(I)cc1)C(=O)O)C(=O)O [PSMA-2]
- Ki [2]: 0.24 nM
- IC50 ([1]; Table 10 Experiment 1, unlabeled): 25.5 nM

Compound: O=C([O-])CN(CCN(CC(=O)[O-])Cc1cc(CCC(=O)NCCCCCC(=O)NCCCC[C@H](NC(=O)N[C@@H](CCC(=O)O)C(=O)O)C(=O)O)ccc1[O-])Cc1cc(CCC(=O)O)ccc1[O-].[68Ga+3].[OH3+] [[^68Ga]PSMA-11]
- [^68Ga]PSMA-11 ex vivo organ biodistribution, Blood ([3]; day 35): 0.114 % ID/g and 0.2999 % ID/g and 0.08 % ID/g and 0.1 % ID/g and 0.06 % ID/Organ and 0.2029 % ID/Organ and 0.05813 % ID/Organ and 0.05324 % ID/Organ
- [^68Ga]PSMA-11 ex vivo organ biodistribution, Bone ([3]; day 35): 0.335 % ID/g and 0.215 % ID/g and 0.2269 % ID/g and 0.3033 % ID/g and 0.08 % ID/Organ and 0.05419 % ID/Organ and 0.04439 % ID/Organ and 0.06845 % ID/Organ
- [^68Ga]PSMA-11 ex vivo organ biodistribution, Brain ([3]; day 35): 0.046 % ID/g and 0.01371 % ID/g and 0.02404 % ID/g and 0.03404 % ID/g and 0.02 % ID/Organ and 0.004254 % ID/Organ and 0.009255 % ID/Organ and 0.01265 % ID/Organ
- [^68Ga]PSMA-11 ex vivo organ biodistribution, Heart ([3]; day 35): 1.938 % ID/g and 1.093 % ID/g and 0.8842 % ID/g and 0.9371 % ID/g and 0.29 % ID/Organ and 0.1577 % ID/Organ and 0.1548 % ID/Organ and 0.1476 % ID/Organ
- [^68Ga]PSMA-11 ex vivo organ biodistribution, Large Int ([3]; day 35): 0.663 % ID/g and 0.3338 % ID/g and 0.1292 % ID/g and 0.592 % ID/g and 0.09 % ID/Organ and 0.08014 % ID/Organ and 0.03072 % ID/Organ and 0.1919 % ID/Organ
- [^68Ga]PSMA-11 ex vivo organ biodistribution, Liver ([3]; day 35): 0.855 % ID/g and 0.4054 % ID/g and 0.232 % ID/g and 0.289 % ID/g and 0.62 % ID/Organ and 0.2982 % ID/Organ and 0.1099 % ID/Organ and 0.2246 % ID/Organ
- [^68Ga]PSMA-11 ex vivo organ biodistribution, Lung ([3]; day 35): 8.218 % ID/g and 1.814 % ID/g and 1.285 % ID/g and 1.336 % ID/g and 3.12 % ID/Organ and 0.2767 % ID/Organ and 0.1869 % ID/Organ and 0.2393 % ID/Organ
- [^68Ga]PSMA-11 ex vivo organ biodistribution, Muscle ([3]; day 35): 0.414 % ID/g and 0.2044 % ID/g and 0.2192 % ID/g and 0.1624 % ID/g and 0.2 % ID/Organ and 0.05644 % ID/Organ and 0.04564 % ID/Organ and 0.04172 % ID/Organ
- [^68Ga]PSMA-11 ex vivo organ biodistribution, Pancreas ([3]; day 35): 0.464 % ID/g and 0.2066 % ID/g and 0.2297 % ID/g and 0.5007 % ID/g and 0.04 % ID/Organ and 0.02448 % ID/Organ and 0.03206 % ID/Organ and 0.07795 % ID/Organ
- [^68Ga]PSMA-11 ex vivo organ biodistribution, Skin ([3]; day 35): 3.25 % ID/g and 0.586 % ID/g and 0.9817 % ID/g and 0.4433 % ID/g and 1.08 % ID/Organ and 0.2667 % ID/Organ and 0.196 % ID/Organ and 0.2187 % ID/Organ
- [^68Ga]PSMA-11 ex vivo organ biodistribution, Small Int ([3]; day 35): 0.29 % ID/g and 0.1397 % ID/g and 0.1663 % ID/g and 0.1479 % ID/g and 0.03 % ID/Organ and 0.02347 % ID/Organ and 0.03142 % ID/Organ and 0.02756 % ID/Organ
- [^68Ga]PSMA-11 ex vivo organ biodistribution, Splcon ([3]; day 35): 22.586 % ID/g and 8.851 % ID/g and 8.108 % ID/g and 16.38 % ID/g
- [^68Ga]PSMA-11 ex vivo organ biodistribution, Spleen ([3]; day 35): 1.34 % ID/Organ and 1.068 % ID/Organ and 0.7168 % ID/Organ and 1.253 % ID/Organ
- [^68Ga]PSMA-11 ex vivo organ biodistribution, Stomach ([3]; day 35): 0.171 % ID/g and 0.3271 % ID/g and 0.1157 % ID/g and 0.09441 % ID/g and 0.16 % ID/Organ and 0.1002 % ID/Organ and 0.07062 % ID/Organ and 0.08055 % ID/Organ
- [^68Ga]PSMA-11 ex vivo organ biodistribution, Blood ([3]; day 50): 0.212 % ID/g and 0.29 % ID/g and 0.207 % ID/g and 0.07 % ID/g and 0.13 % ID/Organ and 0.26 % ID/Organ and 0.14 % ID/Organ
- [^68Ga]PSMA-11 ex vivo organ biodistribution, Bone ([3]; day 50): 0.398 % ID/g and 1.082 % ID/g and 0.335 % ID/g and 0.768 % ID/g and 0.06 % ID/Organ and 0.07 % ID/Organ and 0.05 % ID/Organ
- [^68Ga]PSMA-11 ex vivo organ biodistribution, Brain ([3]; day 50): 0.037 % ID/g and 0.073 % ID/g and 0.024 % ID/g and 0.025 % ID/g and 0.01 % ID/Organ and 0.02 % ID/Organ
- [^68Ga]PSMA-11 ex vivo organ biodistribution, Heart ([3]; day 50): 1.037 % ID/g and 1.182 % ID/g and 0.615 % ID/g and 0.906 % ID/g and 0.16 % ID/Organ and 0.09 % ID/Organ and 0.14 % ID/Organ and 0.18 % ID/Organ
- [^68Ga]PSMA-11 ex vivo organ biodistribution, Large Int ([3]; day 50): 0.766 % ID/g and 0.402 % ID/g and 1.093 % ID/g and 1.205 % ID/g and 0.12 % ID/Organ and 0.06 % ID/Organ and 0.24 % ID/Organ and 0.25 % ID/Organ
- [^68Ga]PSMA-11 ex vivo organ biodistribution, Liver ([3]; day 50): 2.351 % ID/g and 1.41 % ID/g and 0.215 % ID/g and 0.336 % ID/g and 3.36 % ID/Organ and 0.35 % ID/Organ and 0.3 % ID/Organ and 0.41 % ID/Organ
- [^68Ga]PSMA-11 ex vivo organ biodistribution, Lungs ([3]; day 50): 4.185 % ID/g and 14.472 % ID/g and 1.403 % ID/g and 2.187 % ID/g and 0.55 % ID/Organ and 1.74 % ID/Organ and 0.19 % ID/Organ and 0.34 % ID/Organ
- [^68Ga]PSMA-11 ex vivo organ biodistribution, Muscle ([3]; day 50): 0.335 % ID/g and 0.498 % ID/g and 0.405 % ID/g and 0.533 % ID/g and 0.04 % ID/Organ and 0.06 % ID/Organ and 0.11 % ID/Organ and 0.09 % ID/Organ
- [^68Ga]PSMA-11 ex vivo organ biodistribution, Pancreas ([3]; day 50): 0.568 % ID/g and 0.668 % ID/g and 0.447 % ID/g and 0.649 % ID/g and 0.05 % ID/Organ and 0.07 % ID/Organ and 0.06 % ID/Organ
- [^68Ga]PSMA-11 ex vivo organ biodistribution, Skin ([3]; day 50): 1.068 % ID/g and 2.397 % ID/g and 0.883 % ID/g and 0.807 % ID/g and 0.62 % ID/Organ and 0.6 % ID/Organ and 0.31 % ID/Organ and 0.33 % ID/Organ
- [^68Ga]PSMA-11 ex vivo organ biodistribution, Small Int ([3]; day 50): 0.365 % ID/g and 0.631 % ID/g and 0.23 % ID/g and 0.289 % ID/g and 0.05 % ID/Organ and 0.09 % ID/Organ and 0.06 % ID/Organ and 0.07 % ID/Organ
- [^68Ga]PSMA-11 ex vivo organ biodistribution, Spleen ([3]; day 50): 10.073 % ID/g and 86.889 % ID/g and 5.37 % ID/g and 8.812 % ID/g and 0.58 % ID/Organ and 1.25 % ID/Organ and 0.94 % ID/Organ and 1.1 % ID/Organ
- [^68Ga]PSMA-11 ex vivo organ biodistribution, Stomach ([3]; day 50): 0.605 % ID/g and 0.424 % ID/g and 0.154 % ID/g and 0.107 % ID/g and 0.34 % ID/Organ and 0.17 % ID/Organ and 0.12 % ID/Organ and 0.11 % ID/Organ

Compound: O=C([O-])CN1CCN(CC(=O)[O-])CCN(CC(=O)NCC2CCC(C(=O)N[C@@H](Cc3ccc4ccccc4c3)C(=O)NCCCC[C@H](NC(=O)N[C@@H](CCC(=O)O)C(=O)O)C(=O)O)CC2)CCN(CC(=O)[O-])CC1.[177Lu+3] (stereo partly shown) [[^177Lu]PSMA-617]
- reduction of prostate specific antigen [4]: more than 50%
- median survival [5]: 51 days
- median survival [6]: 46 days
